Read-outs that look alike come from different tables or passages of the source.
Legend:
CDK1/A2 = CDK1/A2 (Homo sapiens (Human), UniProt P06493); assay: CDKs inhibition assay (ADP-Glo Kinase Assay), CDK1; details: read-out: IC50 (nM) CDK1/A2
Method: (2) Preparation of Test Compound:
(§4) a. Test compounds at a certain concentration were taken respectively, and diluted with kinase reaction buffer I to compound solutions with a final concentration of 50 μM;
(§5) 4. Preparation of reaction substrate and ATP mixed solution:
a. Preparation of ATP solution:
(§6) 200 μl of 0.1 mM ATP solution: 2 μl of 10 mM ATP was added into 198 μl kinase reaction buffer I;
(§7) 300 μl of 50 μl M ATP solution: 150 μl kinase reaction buffer I was added into 150 μl of above-mentioned 0.1 mM ATP solution;
(§8) b. Preparation of 300 μl reaction substrate solution:
(§9) 150 μl of 1 μg/μl reaction substrate stock solution was added into 150 μl kinase reaction buffer I and uniformly mixed;
(§10) c. Above-mentioned a/b solutions were mixed to obtain mixed solutions respectively.
(§11) 2 μl compound solution at each concentration was added into a 384-well plate respectively, and centrifuged for 3 min;
(§12) 4 μl kinase solution was added into each well, centrifuged at 5000 rpm for 10 min at 18° C., and shaked well for 10 min on a shaker;
(§13) 4 μl substrate and ATP mixed solution were added into each well, centrifuged at 5000 rpm for 10 min at 18° C., and shaked well for 90 min on a shaker at 37° C.;
(§14) The 384 well plate was removed and allow to achieve room temperature;
(§15) 10 μl ADP-Glo reagent was added into each well, centrifuged at 5000 rpm for 10 min at 18° C., and shaked well for 40 min on a shaker at 25° C. to terminate the reaction;
(§16) 20 μl kinase assay reagent was added into each well, centrifuged at 5000 rpm for 10 min at 18° C., and shaked well for 30 min on a shaker at 25° C.;
(§17) Fluorescence values were read by M1000pro microplate reader.
(§18) The inhibition rate of each compound at each concentration point was calculated according to the following equation, and IC50 value was calculated by curve fitting using GraphPad Prism 5 software.

[1] = Pharmacokinetic study in mice (intragastric and intravenous); type: in vivo, ICR mice; details: for AUC: read-out: Area under the curve AUC; for MRT: read-out: Retention time MRT
Method: (§1) 2.3 Preparation of Test Compounds
An appropriate amount of sample was weighed, then 0.1% hydroxyethyl cellulose/0.5% Tween 80 was added to final volume to obtain a solution of 0.5 mg/ml for intragastrical administration.
(§2) 2.4 Test Drug Administration
Male ICR mice, 3 for each test compound, were intragastrically administered test drugs at a dose of 5 mg/kg and a drug volume of 10 ml/kg after an overnight fast.
Male ICR mice, 3 for each test compound, were administered by intravenous injection test drugs at a dose of 2 mg/kg and a drug volume of 10 ml/kg after an overnight fast.
(§3) 3. Experimental Operation
The carotid artery of the animal was catheterized and blood sample was removed prior to dosing and at 0.25, 0.5, 1, 2, 4, 8, 12 and 24 hours after dosing for intragastrical administration group. Whole blood was anticoagulated with EDTA-K2, centrifuged to remove the supernatant, and cryopreserved at −20° C. until being analyzed. The carotid artery of the animal was catheterized and blood sample was removed prior to dosing and at 0.083, 0.25, 0.5, 1, 2, 4, 8, 12 and 24 hours after dosing for i.v. administration group. Plasma sample treatment was the same as intragastrical administration group.

[2] = Pharmacokinetic study in rats (intragastric); type: in vivo, SD rats; details: 5 mg/kg
Method: as §1, §2, §3
Whole blood was anticoagulated with EDTA-K2, centrifuged to remove the supernatant, and cryopreserved at −20° C. until being analyzed.

[3] = system: human breast cancer cell line MDB-MA-231; assay: Proliferation inhibition assay on human breast cancer cell line MDA-MB-231 (DAPI staining, In Cell Analyzer); type: cell-based
Method: Experimental Preparation:
1. MDA-MB-231 cells were seeded at 4000 cells/100 ul/well to a 96-well plate with black transparent bottom, and cultured overnight at 37° C.;
3. Fixation: the cell plate was taken, medium was removed, and 50 μl of 4% paraformaldehyde was added to each well and fixed 10 min;
4.50 μl 0.1 M glycine was added to neutralize for 10 min;
6. Permeabilization: 50 ul of 0.2% TritonX-100 was added to each well and permeabilized at room temperature for 10 min;
8.5 mg/mL DAPI stock solution was diluted at 1:5000 (final concentration 1 μg/ml) and the cells were stained at room temperature for 20 min.
10. The plate was scanned and analyzed on In cell analyser.

CDK4/D3 = CDK4/D3 (Homo sapiens (Human), UniProt P11802); assay: CDKs inhibition assay (ADP-Glo Kinase Assay), CDK4; details: for selectivity for CDK4/6 (over CDK1) compared with the control compound LY2835219: in words; for Ratio IC50 (CDK4)/IC50 (CDK1): smaller value = better selectivity for CDK4
Method: (2) Preparation of Test Compound:
as §4, §5
a. Preparation of ATP solution:
as §6, §7, §8, §9, §10, §11, §12, §13, §14, §15, §16, §17, §18

CDK6/D3 = CDK6/D3 (Homo sapiens (Human), UniProt Q00534); assay: CDKs inhibition assay (ADP-Glo Kinase Assay), CDK6; details: for Ratio IC50 (CDK6)/IC50 (CDK1): smaller value = better selectivity for CDK6
Method: (2) Preparation of Test Compound:
as §4, §5
a. Preparation of ATP solution:
as §6, §7, §8, §9, §10, §11, §12, §13, §14, §15, §16, §17, §18

[4] = male, ICR, mouse, plasma, iv, i.v. (2 mg/kg)
[5] = male, ICR, mouse, plasma, po, i.g. (5 mg/kg)
[6] = MDA-MB-231, read-out: IC50 for inhibition of proliferation of human breast cancer cell line MDB-MA-231, 72 h incubation

## CC1CCc2nc3c(F)cc(-c4ccnc(Nc5ccc(N6CCNCC6)cn5)n4)cc3n21 (stereo not shown) [Example 72, 4-(5-Fluoro-1-methyl-2,3-dihydro-1H-benzo[d]pyrrolo[1,2-a]imidazol-7-yl)-N-(5-(piperazin-1-yl)pyridin-2-yl)pyrimidin-2-amine]
CDK1/A2
  IC50: 693 nM

## CCN1CCN(Cc2ccc(Nc3ncc(F)c(-c4cc(F)c5nc(C)n(C(C)C)c5c4)n3)nc2)CC1 [LY2835219]
[1]; i.v. (2 mg/kg)
  Apparent volume of distribution Vz/F: 7.21 ± 1.08 L/kg
[1]; [4]
  AUC: 0.674 ± 0.0821 µg·h/mL
  MRT: 1.64 ± 0.17 h
[1]; male, ICR, mouse, plasma, oral, i.g. (5 mg/kg) vs i.v. (2 mg/kg), read-out: Bioavailability F
  bioavailability: 45.1%
[1]; male, ICR, mouse, plasma, po, i.g. (5 mg/kg), read-out: Apparent volume of distribution Vz/F
  Vd/F: 16.1 ± 0.963 L/kg
[1]; [5]
  AUC: 0.756 ± 0.034 µg·h/mL
  MRT: 3.08 ± 0.02 h
[2]
  Area under the curve AUC: 3.275 ± 0.731 µg·h/mL

## CN1CCN(c2ccc(Nc3ncc(F)c(-c4cc(F)c5nc6n(c5c4)C(C)(C)CC6)n3)nc2)CC1 [Example 43, 5-Fluoro-4-(5-fluoro-1,1-dimethyl-2,3-dihydro-1H-benzo[d]pyrrolo[1,2-a]imidazol-7-yl)-N-(5-(4-methylpiperazin-1-yl)pyridin-2-yl)pyrimidin-2-amine]
CDK1/A2
  IC50: 732 nM
[3]; [6]
  IC50: 0.058 µM
CDK4/D3
  IC50: 0.013 µM
  selectivity for CDK4/6 (over CDK1) compared with the control compound LY2835219: better selectivity for CDK4/6 than the control compound
  Ratio IC50 (CDK4)/IC50 (CDK1): 0.018
CDK6/D3
  IC50: 0.0003 µM
  Ratio IC50 (CDK6)/IC50 (CDK1): 0.0004

## CC1(C)CCc2nc3c(F)cc(-c4nc(Nc5ccc(OC6CCNCC6)cn5)ncc4F)cc3n21 [Example 34, 5-Fluoro-4-(5-fluoro-1,1-dimethyl-2,3-dihydro-1H-benzo[d]pyrrolo[1,2-a]imidazol-7-yl)-N-(5-(piperidine-4-yloxy)pyridin-2-yl)pyrimidin-2-amine]
[3]; [6]
  IC50: 0.035 µM
CDK4/D3
  IC50: 0.0039 µM
CDK6/D3
  IC50: 0.0038 µM

## CC1CN(c2ccc(Nc3ncc(F)c(-c4cc(F)c5nc6n(c5c4)C(C)(C)CC6)n3)nc2)CC(C)N1 (stereo not shown) [Example 74, N-(5-(3,5-Dimethylpiperazin-1-yl)pyridin-2-yl)-5-fluoro-4-(5-fluoro-1,1-dimethyl-2,3-dihydro-1H-benzo[d]pyrrolo[1,2-a]imidazol-7-yl)pyrimidin-2-amine]
CDK1/A2
  IC50: 94.8 nM
[3]; [6]
  IC50: 0.174 µM
CDK4/D3
  IC50: 0.00028 µM
  selectivity for CDK4/6 (over CDK1) compared with the control compound LY2835219: better selectivity for CDK4/6 than the control compound
  Ratio IC50 (CDK4)/IC50 (CDK1): 0.003
CDK6/D3
  IC50: 0.0006 µM
  Ratio IC50 (CDK6)/IC50 (CDK1): 0.006

## CCN1CCC(c2ccc(Nc3ncc(F)c(-c4cc(F)c5nc6n(c5c4)C(C)(C)CC6)n3)nc2)CC1 [Example 45, N-(5-(1-Ethylpiperidine-4-yl)pyridin-2-yl)-5-fluoro-4-(5-fluoro-1,1-dimethyl-2,3-dihydro-1H-benzo[d]pyrrolo[1,2-a]imidazol-7-yl)pyrimidin-2-amine]
[3]; MDA-MB-231, 72 h, read-out: IC50 for inhibition of proliferation of human breast cancer cell line MDB-MA-231
  IC50: 0.03 µM
CDK4/D3
  IC50: 0.007 µM
CDK6/D3
  IC50: 0.0217 µM

## CC1Cc2nc3c(F)cc(-c4nc(Nc5ccc(N6CCNCC6)cn5)ncc4F)cc3n2C1 (stereo not shown) [Example 50, 5-Fluoro-4-(5-fluoro-2-methyl-2,3-dihydro-1H-benzo[d]pyrrolo[1,2-a]imidazol-7-yl)-N-(5-(piperazin-1-yl)pyridin-2-yl)pyrimidin-2-amine]
[3]; [6]
  IC50: 3.65 µM
CDK4/D3
  IC50: 0.0176 µM
CDK6/D3
  IC50: 0.368 µM

## CC1(C)Cc2nc3c(F)cc(-c4nc(Nc5ccc(N6CCNCC6)cn5)ncc4F)cc3n2C1 [Example 55, 5-Fluoro-4-(5-fluoro-2,2-dimethyl-2,3-dihydro-1H-benzo[d]pyrrolo[1,2-a]imidazol-7-yl)-N-(5-(piperazin-1-yl)pyridin-2-yl)pyrimidin-2-amine]
CDK1/A2
  IC50: 6240 nM

## Cc1nc(Nc2ncc(F)c(-c3cc(F)c4nc5n(c4c3)C(C)CC5)n2)ccc1CC1CCNCC1 (stereo not shown) [Example 62, 5-Fluoro-4-(5-fluoro-1-methyl-2,3-dihydro-1H-benzo[d]pyrrolo[1,2-a]imidazol-7-yl)-N-(6-methyl-5-(piperidine-4-methylene)pyridin-2-yl)pyrimidin-2-amine]
[3]; [6]
  IC50: 1.32 µM
CDK4/D3
  IC50: 0.0017 µM
CDK6/D3
  IC50: 0.034 µM

## CCN1CCC(Oc2ccc(Nc3ncc(F)c(-c4cc(F)c5nc6n(c5c4)C(C)(C)CC6)n3)nc2)CC1 [Example 33, N-(5-((1-Ethylpiperidine-4-yl)oxy)pyridin-2-yl)-5-fluoro-4-(5-fluoro-1,1-dimethyl-2,3-dihydro-1H-benzo[d]pyrrolo[1,2-a]imidazol-7-yl)pyrimidin-2-amine]
[3]; [6]
  IC50: 0.02 µM
CDK4/D3
  IC50: 0.0032 µM
CDK6/D3
  IC50: 0.0076 µM

## CN(C)C1CCN(c2ccc(Nc3ncc(F)c(-c4cc(F)c5nc6n(c5c4)C(C)(C)CC6)n3)nc2)CC1 [Example 71, N-(5-(4-(Dimethylamino)piperidine-1-yl)pyridin-2-yl)-5-fluoro-4-(5-fluoro-1,1-dimethyl-2,3-dihydro-1H-benzo[d]pyrrolo[1,2-a]imidazol-7-yl)pyrimidin-2-amine]
[3]; [6]
  IC50: 0.046 µM
CDK4/D3
  IC50: 0.001 µM
CDK6/D3
  IC50: 0.014 µM

## C[C@H]1CN(Cc2ccc(Nc3ncc(F)c(-c4cc(F)c5nc6n(c5c4)C(C)(C)CC6)n3)nc2)CCN1C [Example 47, (S)—N-(5-((3,4-Dimethylpiperazin-1-yl)methyl)pyridin-2-yl)-5-fluoro-4-(5-fluoro-1,1-dimethyl-2,3-dihydro-1H-benzo[d]pyrrolo[1,2-a]imidazol-7-yl)pyrimidin-2-amine]
CDK1/A2
  IC50: 745 nM
CDK4/D3
  IC50: 0.0024 µM
  selectivity for CDK4/6 (over CDK1) compared with the control compound LY2835219: better selectivity for CDK4/6 than the control compound
  Ratio IC50 (CDK4)/IC50 (CDK1): 0.003
CDK6/D3
  IC50: 0.003 µM
  Ratio IC50 (CDK6)/IC50 (CDK1): 0.004

## Cc1nc(Nc2ncc(F)c(-c3cc(F)c4nc5n(c4c3)C(C)(C)CC5)n2)ccc1CC1CCNCC1 [Example 30, 5-Fluoro-4-(5-fluoro-1,1-dimethyl-2,3-dihydro-1H-benzo[d]pyrrolo[1,2-a]imidazol-7-yl)-N-(6-methyl-5-(piperidine-4-ylmethyl)pyridin-2-yl)pyrimidin-2-amine]
CDK1/A2
  IC50: 744 nM
[3]; [6]
  IC50: 0.3 µM
CDK4/D3
  IC50: 0.0012 µM
  selectivity for CDK4/6 (over CDK1) compared with the control compound LY2835219: better selectivity for CDK4/6 than the control compound
  Ratio IC50 (CDK4)/IC50 (CDK1): 0.002
CDK6/D3
  IC50: 0.0122 µM
  Ratio IC50 (CDK6)/IC50 (CDK1): 0.016

## CC1CCc2nc3c(F)cc(-c4nc(Nc5ccc6c(n5)CCN(C(=O)CO)C6)ncc4F)cc3n21 (stereo not shown) [Example 58, 1-(2-((5-Fluoro-4-(5-fluoro-1-methyl-2,3-dihydro-1H-benzo[d]pyrrolo[1,2-a]imidazol-7-yl)pyrimidin-2-yl)amino)-7,8-dihydro-1,6-naphthyridin-6(5H)-yl)-2-hydroxyethan-1-one]
[3]; [6]
  IC50: 0.458 µM
CDK4/D3
  IC50: 0.028 µM
CDK6/D3
  IC50: 0.0473 µM

## CC1CCc2nc3c(F)cc(-c4nc(Nc5ccc(C6CCNCC6)cn5)ncc4F)cc3n21 (stereo not shown) [Example 61]
[3]; [6]
  IC50: 1.53 µM
CDK4/D3
  IC50: 0.0039 µM
CDK6/D3
  IC50: 0.08 µM

Source: patent publication US10696678B2, “Kinase inhibitor, and preparing method and pharmaceutical use thereof” (GAN & LEE PHARMACEUTICALS, priority 2015, dated 2020)
